Measurements: patent US10231969B2, “Anti-neoplastic combinations and dosing regimens using CDK4/6 inhibitor compounds to treat RB-positive tumors” (G1 Therapeutics, Inc., priority 2014, dated 2019)
Read-outs that look alike come from different tables or passages of the source.

Columns and labels:
[1] = biological target: CDK4/CyclinD1 (Homo sapiens, UniProt P11802); experiment: CDK4/cyclinD1 kinase assay (Nanosyn, Caliper microfluidic); format: biochemical; details: read-out: CDK4/CycD1 IC50
Method: (§1) Selected compounds disclosed herein were tested in CDK4/cyclinD1, CDK2/CycA and CDK2/cyclinE kinase assays by Nanosyn (Santa Clara, Calif.) to determine their inhibitory effect on these CDKs. The assays were performed using microfluidic kinase detection technology (Caliper Assay Platform). The compounds were tested in 12-point dose-response format in singlicate at Km for ATP. Phosphoacceptor substrate peptide concentration used was 1 μM for all assays and Staurosporine was used as the reference compound for all assays. Specifics of each assay are as described below:
CDK4/CyclinD1: Enzyme concentration: 1 nM; ATP concentration: 200 μM; Incubation time: 10 hr.

[2] = Peripheral blood CBC on day 14 in MCF7 implant model; format: in vivo, Immunodeficient mice; details: Day 14, 100 mg/kg PO QD
Text: Specific cell counts analyzed were white blood cells (WBC: FIG. 21A), lymphocytes (FIG. 21B), neutrophils (FIG. 21C), monocytes (FIG. 21D), platelets (FIG. 21E), and red blood cells (FIG. 21F).

[3] = system: HS68 cells (human skin fibroblast cell line (Rb-positive)); experiment: G1 arrest (cellular G1 and S-phase) assay; format: cell-based
Method: The fraction of cells in G0-G1 DNA cell cycle versus the fraction in S-phase DNA cell cycle was determined using FlowJo 7.2.2 analysis.
The compounds listed in Table 1 were tested for their ability to arrest HS68 cells at the G1 phase of the cell cycle.

[4] = biological target: T1, CDK2/CyclinE (Homo sapiens, UniProt P24941); experiment: CDK2/cyclinE kinase assay (Nanosyn, Caliper microfluidic); format: biochemical; details: Table 2; for IC50: ATP 100 μM, read-out: CDK2/CycE IC50
T1 construct: Nanosyn (Santa Clara, Calif.) ran the assay as a service
Method: as §1, with “assays.” for “assays. Specifics of each assay are as described below:”

[5] = system: H69 (human small cell lung cancer—Rb-negative) cells; experiment: Cellular proliferation assay (CellTiter-Glo), H69; format: cell-based; details: NCI-H69, 96 h, four days
Method: (§2) Cellular proliferation assays were further conducted using the following cancer cell lines: MCF7 (breast adenocarcinoma—Rb-positive), ZR-75-1 (breast ductal carcinoma—Rb-positive), H69 (human small cell lung cancer—Rb-negative) cells, or A2058 (human metastatic melanoma cells—Rb-negative). These cells were seeded in Costar (Tewksbury, Mass.) 3093 96 well tissue culture treated white walled/clear bottom plates. Cells were treated with the compounds of Table 1 as nine point dose response dilution series from 10 uM to 1 nM. Cells were exposed to compounds and then cell viability was determined after either four (H69) or six (MCF7, ZR75-1, A2058) days as indicated using the CellTiter-Glo® luminescent cell viability assay (CTG; Promega, Madison, Wis., United States of America) following the manufacturer's recommendations. Plates were read on BioTek (Winooski, Vt.) Syngergy2 multi-mode plate reader. The Relative Light Units (RLU) were plotted as a result of variable molar concentration and data was analyzed using Graphpad (LaJolla, Calif.) Prism 5 statistical software to determine the EC50 for each compound.

[6] = system: MCF7 (breast adenocarcinoma—Rb-positive); experiment: Cellular proliferation assay (CellTiter-Glo), MCF7; format: cell-based; details: Homo sapiens, MCF7, 144 h, six days
Method: as §2

[7] = system: A2058 (human metastatic melanoma cells—Rb-negative); experiment: Cellular proliferation assay (CellTiter-Glo), A2058; format: cell-based; details: A2058, 144 h, six days
Method: as §2

[8] = biological target: T2, CDK2/CyclinA (Homo sapiens, UniProt P24941); experiment: CDK2/CycA kinase assay (Nanosyn, Caliper microfluidic); format: biochemical; details: Table 2; for IC50: ATP 50 μM
T2 construct: Nanosyn (Santa Clara, Calif.) ran the assay as a service
Method: as §1
CDK2/CyclinA: Enzyme concentration: 0.2 nM; ATP concentration: 50 μM; Incubation time: 3 hr.

[9] = system: Rb phosphorylation (Ser780, Ser807/811) in WM2664; experiment: Rb phosphorylation western blot, WM2664; format: cell-based; details: WM2664, 300 nM, by 16 hours post exposure
Method: (§3) The CDK4/6-cyclin D complex is essential for progression from G1 to the S-phase of the DNA cell cycle. This complex phosphorylates the retinoblastoma tumor suppressor protein (Rb). […] Samples were lysed and protein was assayed by western blot analysis. Rb phosphorylation was measured at two sites targeted by the CDK4/6-cyclin D complex, Ser780 and Ser807/811 using species specific antibodies.

[10] = system: Rb phosphorylation (Ser780, Ser807/811) in tHS68; experiment: Rb phosphorylation western blot, tHS68; format: cell-based; details: tHS68, 300 nM, by 16 hours post exposure
Method: as §3

[11] = system: tHS68 (CDK4/6-dependent; Rb-positive); experiment: Cell cycle arrest, propidium iodide flow cytometry, tHS68; format: cell-based; details: tHS68, 24 hours, highest concentration shown (28% at baseline)
Text: To test the ability of CDK4/6 inhibitors to induce a clean G1-arrest in Rb-positive cells, a cell based screening method was used consisting of two CDK4/6-dependent cell lines (tHS68 and WM2664; Rb-positive) and one CDK4/6-independent (A2058; Rb-negative) cell line. […] At the conclusion of the experiment, cells were harvested, fixed, and stained with propidium iodide (a DNA intercalator), which fluoresces strongly red (emission maximum 637 nm) when excited by 488 nm light. Samples were run on Dako Cyan flow cytometer and >10,000 events were collected for each sample. Data were analyzed using FlowJo 2.2 software developed by TreeStar, Inc.

[12] = system: bone marrow proliferating cells; experiment: EdU incorporation in hematopoietic cells after i.p. dose; format: in vivo, C57BL/6 female mice; details: single i.p. dose 50 mg/kg or 100 mg/kg
Method: At the designated time: 30 min, 1 h, 2 h, 4 h, 6 h, 8 h, 12 h, 18 h, 24 h or 48 h, mice received an injection of 5′-ethynyl-2′-deoxyuridine (EdU). Two hours post EdU injection, mice were sacrificed. As illustrated in FIGS. 12-19, cell lines were isolated and incorporation of EdU was measured. Hematopoietic cell lineages were identified using known cell lineage markers. (See, for example, Challen, et al. “Mouse Hematopoietic Stem Cell Identification and Analysis”, Cytometry A. (2009) 75(1): 14-24).

[13] = system: 456 (395 non-mutant) kinases; experiment: DiscoveRx KINOMEscan profiling; format: binding; details: 1000 nM
[14] = system: ZR-75-1 (breast ductal carcinoma—Rb-positive); experiment: Cellular proliferation assay (CellTiter-Glo), ZR-75-1; format: cell-based; details: Homo sapiens, ZR-75-1, 144 h, six days, read-out: ZR75-1 Cellular EC50
Method: as §2

[15] = system: ER+, HER2− locally advanced or metastatic breast cancer; details: post-menopausal women, at time of final PFS analysis; cited from earlier work

Chain of CDK4/CyclinD1 (P11802 whole entry): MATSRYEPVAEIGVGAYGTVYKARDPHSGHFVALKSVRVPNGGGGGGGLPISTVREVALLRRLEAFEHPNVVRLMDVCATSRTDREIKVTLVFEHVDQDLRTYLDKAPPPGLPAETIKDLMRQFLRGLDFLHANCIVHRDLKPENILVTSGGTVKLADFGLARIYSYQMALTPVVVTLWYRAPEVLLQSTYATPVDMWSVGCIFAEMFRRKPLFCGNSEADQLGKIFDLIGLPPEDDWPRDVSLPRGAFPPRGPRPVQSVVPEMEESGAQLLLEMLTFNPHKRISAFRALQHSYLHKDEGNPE
Chain of CDK4/CyclinD1 (P24385 whole entry partner): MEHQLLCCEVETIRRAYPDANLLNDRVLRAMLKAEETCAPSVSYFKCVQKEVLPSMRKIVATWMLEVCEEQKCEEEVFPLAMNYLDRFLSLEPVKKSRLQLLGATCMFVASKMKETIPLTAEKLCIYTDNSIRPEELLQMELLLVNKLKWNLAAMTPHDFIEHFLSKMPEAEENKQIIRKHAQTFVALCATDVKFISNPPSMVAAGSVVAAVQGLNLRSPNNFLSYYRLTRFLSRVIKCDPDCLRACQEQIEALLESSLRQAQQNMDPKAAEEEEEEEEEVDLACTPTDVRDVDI

SMILES: CCN1[C@H](C)CN(c2ccc(Nc3ncc4cc5n(c4n3)C3(CCCCC3)CNC5=O)nc2)C[C@@H]1C [FF]
- IC50 ([1]; Table 2, ATP at Km (200 μM)): 1.2 nM

SMILES: C[C@@H](O)CN1CCN(c2ccc(Nc3ncc4cc5n(c4n3)C3(CCCCC3)CNC5=O)nc2)CC1 [S]
- IC50 ([1]; Table 2, ATP at Km (200 μM)): 1.7 nM

SMILES: CC(C)[C@H]1CNC(=O)c2cc3cnc(Nc4ccc(N5CCNCC5)cn4)nc3n21 [UUU]
- IC50 ([1]; Table 2, ATP at Km (200 μM)): 18 nM

SMILES: CC(C)N1CCN(c2ccc(Nc3ncc4cc5n(c4n3)C3(CCCCC3)CNC5=O)nc2)CC1 [Compound GG]
- IC50 ([1]; Table 3): 1.06 nM
- IC50 [1]: 1 nM
- lymphocyte count [2]: reduced cell counts
- neutrophil count [2]: reduced cell counts
- platelet count [2]: reduced cell counts
- red blood cell count [2]: reduced cell counts
- white blood cell count [2]: reduced cell counts

SMILES: CC(C)N1CCN(c2ccc(Nc3ncc4cc5n(c4n3)C3(CCCCC3)CNC5=O)nc2)C[C@H]1C [L]
- IC50 ([1]; Table 2, ATP at Km (200 μM)): 5.7 nM

SMILES: C[C@@H]1CN(c2ccc(Nc3ncc4cc5n(c4n3)C3(CCCCC3)CNC5=O)nc2)CCN1C[C@@H](C)O [J]
- IC50 ([1]; Table 2, ATP at Km (200 μM)): 0.7 nM

SMILES: CCN(CC)C1CCN(c2ccc(Nc3ncc4cc5n(c4n3)C3(CCCC3)CNC5=O)nc2)C1 (stereo not drawn) [UU]
- EC50 [3]: 300 nM

SMILES: O=C1NCC2(CCCC2)n2c1cc1cnc(Nc3ccc(N4CCC(N5CCOCC5)CC4)cn3)nc12 [WW]
- EC50 [3]: 400 nM

SMILES: CN1CCN(C(=O)c2ccc(Cc3ncc4cc5n(c4n3)C3(CCCC3)CNC5=O)nc2)CC1 [BBB]
- IC50 [4]: 187 nM
- Fold Selectivity (CDK2/CycE/CDK4) ([4]; ratio of IC50s): 68
- EC50 [5]: > 3000 nM
- EC50 [3]: 230 nM
- IC50 ([1]; Table 2, ATP at Km (200 μM)): 2.8 nM
- EC50 [6]: 123 nM
- EC50 [7]: > 3000 nM
- IC50 [8]: 85 nM
- Fold Selectivity (CDK2/CycA/CDK4) ([8]; ratio of IC50s): 31

SMILES: CN1CCN(c2ccc(Nc3ncc4cc5n(c4n3)C3(CCCCC3)CNC5=O)nc2)CC1 [Compound T]
- Rb phosphorylation [9]: blocks Rb phosphorylation
- Rb phosphorylation [10]: blocks Rb phosphorylation
- cells in S-phase [11]: 6%
- EdU incorporation, bone marrow [12]: dose and time dependent reduction and recovery of proliferating cells
- number of 395 non-mutant kinases inhibited ([13]; inhibitory threshold of 65%): 92
- share of 395 non-mutant kinases inhibited ([13]; inhibitory threshold of 65%): 23.3%
- number of 395 non-mutant kinases inhibited ([13]; inhibitory threshold of 90%): 31
- share of 395 non-mutant kinases inhibited ([13]; inhibitory threshold of 90%): 7.8%
- number of 395 non-mutant kinases inhibited ([13]; inhibitory threshold of 99%): 6
- share of 395 non-mutant kinases inhibited ([13]; inhibitory threshold of 99%): 1.5%

SMILES: CCN(CC)C1CCN(c2ccc(Nc3ncc4cc5n(c4n3)C3(CCCCC3)CNC5=O)nc2)C1 (stereo not drawn) [QQ]
- EC50 [3]: 120 nM

SMILES: CC1CN(c2ccc(Nc3ncc4cc5n(c4n3)C3(CCCCC3)CNC5=O)nc2)C[C@@H](C)N1CC1CC1 (stereo partly drawn) [OO]
- IC50 [4]: 3980 nM
- EC50 [5]: > 3000 nM
- EC50 [3]: 95 nM
- IC50 ([1]; Table 2, ATP at Km (200 μM)): 9 nM
- EC50 [6]: 120 nM
- EC50 [7]: > 3000 nM
- EC50 [14]: 229 nM
- IC50 [8]: 570 nM

SMILES: CCOCCN1CCN(c2ccc(Nc3ncc4cc5n(c4n3)C3(CCCC3)CNC5=O)nc2)CC1 [MMM]
- IC50 ([1]; Table 2, ATP at Km (200 μM)): 3.2 nM

SMILES: N#Cc1ccc(C(c2ccc(C#N)cc2)n2cncn2)cc1 [letrozole]
- median OS [15]: 33.3 months

SMILES: C[C@H]1CN(c2ccc(Nc3ncc4cc5n(c4n3)C3(CCCCC3)CNC5=O)nc2)CCN1CCC(C)(C)C [M]
- IC50 ([1]; Table 2, ATP at Km (200 μM)): 2.3 nM

SMILES: CC1CN(c2ccc(Nc3ncc4cc5n(c4n3)C3(CCCC3)CNC5=O)nc2)CCN1CCC(C)(C)C (stereo not drawn) [PPP]
- IC50 [4]: 16500 nM
- IC50 ([1]; Table 2, ATP at Km (200 μM)): 0.8 nM
- IC50 [8]: 2640 nM
